Reference: US5731334A, “Method for treating cancer using taxoid onium salt prodrugs” (priority 1995, dated 1998)
pIC50: −log10 of the molar value.

Key:
[1] = test system: PC-3 prostate carcinoma tumor xenograft; experiment: PC-3 prostate tumor xenograft in nude mice
Method: (§3) Athymic nude mice were purchased from Harlan-Sprague-Dawley. The animals were housed in microisolated cases under positive air pressure and all manipulations and drug treatments were performed in a laminar flow cabinet. Tumor cells were grown under the above tissue culture conditions. Cell suspensions in RPMI medium were injected S./C. Treatment was started one day after inoculation by i.p. injection of 400 μl drug solutions. Tumors were measured 3 times weekly in two dimensions, using calipers and tumor volume as calculated using the formula (V=w^2 ×L×(3.142).
The tumor model was generated from an ATTC PC-3 prostate carcinoma cell line that was maintained under standard cell proliferation conditions, viz. 37° C., 5% carbon dioxide in sterile air. Each cohort was comprised of eight randomly chosen female athymic nude mice, for a total population size of twenty four. Hemocytometer counted cells, suspended in Hanks mediun (Gibco, Grand Island N.Y.) were implanted S.C. (10^6 cells in 0.4 mL per mouse). Solid tumor growth was measured on each third day. Equimolar amounts of the test compounds (1.0 mM, 400 μL) were injected i.p. on days 1, 3, 5, 7, 9, and 11 using the following media:
(.smallcircle.): Control, 5% dextrose in 5× distilled water (5 DW)
(Δ): Taxol (18.0 mg/kg of animal weight or approximately 1.260 mg/m^2) suspended in Cremaphor/D5W
Inferences about efficacy were drawn by ANOVA followed by protected t-test. […] Data shown as mean value with standard error.

[2] = test system: Capan 1 pancreas cancer cells; experiment: XTT dye binding cytotoxicity assay, Capan 1; format: cell-based; settings: Homo sapiens; Capan 1, pancreas cancer; 72 h; read-out: IC50
Method: (§1) All cell lines described herein were obtained from the ATCC and maintained in media formulations as recommended by the supplier. The cell lines were tested for mycoplasma contamination prior to incubation at 37° C. in 5% carbon dioxide. Normal human dermal fibroblasts, peripheral blood lymphoblasts and mammary epithelial cells were obtained from Clonogenic Cor., San Diego, Calif. and were maintained under the above incubation conditions in special media provided by the supplier.
(§2) Antiproliferative activities of the onium salts were determined using the XTT dye binding assay. Cells were harvested with trypsin/EDTA (Irvine Scientific), washed, resuspended in the appropriate medium, and counted in a hemocytometer using Trypan Blue to determine viability. Then 10^4 cells/well were added to 96 well microtiter plates and incubated for 24 hours before addition of drug at concentrations in the range of 10^-4 to 10^-13 molar by direct addition from DMSO solutions. After 72 hours, XTT binding dye was added and incubation was continued for 4 hours. The inhibition of cell proliferation was quantified using a Molecular Devices Microplate Reader. The absorbance of XTT was measured at […]. The concentration of drug which inhibited growth of cells by 50% was calculated from duplicated determinations.

[3] = test system: PC-3 prostate carcinoma cells; experiment: XTT dye binding cytotoxicity assay, PC-3; format: cell-based; settings: Homo sapiens, 72 h
Method: as §1, §2

[4] = test system: UCLA-P3 lung carcinoma cells; experiment: XTT dye binding cytotoxicity assay, UCLA-P3; format: cell-based; settings: Homo sapiens, UCLA P-3; UCLA-P3, lung carcinoma; 72 h; read-out: IC50
Method: as §1, §2

[5] = test system: SK-N-SH neuroblastoma cells; experiment: XTT dye binding cytotoxicity assay, SK-N-SH; format: cell-based; settings: Homo sapiens, neuroblastoma, 72 h, read-out: IC50
Method: as §1, §2

[6] = test system: 786-0 renal cell carcinoma cells; experiment: XTT dye binding cytotoxicity assay, 786-0; format: cell-based; settings: Homo sapiens; 786-0, renal cell carcinoma; 72 h; read-out: IC50
Method: as §1, §2

[7] = test system: M-24 metastatic melanoma cells; experiment: XTT dye binding cytotoxicity assay, M-24; format: cell-based; settings: Homo sapiens, M24; M-24, melanoma-metastatic; 72 h; read-out: IC50
Method: as §1, §2

[8] = test system: HL-60 promyelocytic leukemia cells; experiment: XTT dye binding cytotoxicity assay, HL-60; format: cell-based; settings: Homo sapiens; HL-60, promyelocytic leukemia; 72 h; read-out: IC50
Method: as §1, §2

[9] = test system: OVCAR-3 ovarian carcinoma cells; experiment: XTT dye binding cytotoxicity assay, OVCAR-3; format: cell-based; settings: Homo sapiens; OVCAR-3, ovarian carcinoma; 72 h; read-out: IC50
Method: as §1, §2

[10] = test system: HT-29 colon carcinoma cells; experiment: XTT dye binding cytotoxicity assay, HT-29; format: cell-based; settings: Homo sapiens; HT-29, colon carcinoma; 72 h; read-out: IC50
Method: as §1, §2

[11] = test system: HMEC mammary epithelial cells; experiment: XTT dye binding cytotoxicity assay, HMEC; format: cell-based; settings: Homo sapiens, mammary epithelial cells (untransformed), 72 h, read-out: IC50
Method: as §1, §2

[12] = Plasma stability and prodrug reversion (ethyl acetate extraction, HPLC); settings: human, plasma
SK-Mel-28 melanoma cells = experiment: XTT dye binding cytotoxicity assay, SK-Mel-28; format: cell-based; settings: Homo sapiens; SK-Mel-28, melanoma; 72 h; read-out: IC50
Method: as §1, §2

human tumor xenografts = experiment: In vivo antitumor effect (human tumor xenografts in nude mice)
U-2511 CNS cancer cells = experiment: XTT dye binding cytotoxicity assay, U-2511; format: cell-based; settings: Homo sapiens; U-2511, CNS cancer; 72 h; read-out: IC50
Method: as §1, §2

[13] = test system: SIHA squamous carcinoma cells; experiment: XTT dye binding cytotoxicity assay, SIHA; format: cell-based; settings: Homo sapiens; SIHA, squamous carcinoma; 72 h; read-out: IC50
Method: as §1, §2

[14] = test system: A-549 lung carcinoma cells; experiment: XTT dye binding cytotoxicity assay, A-549; format: cell-based; settings: Homo sapiens, A549; A-549, lung carcinoma; 72 h; read-out: IC50
Method: as §1, §2

[15] = test system: RPMI-7666 blood lymphoblasts; experiment: XTT dye binding cytotoxicity assay, RPMI-7666; format: cell-based; settings: Homo sapiens; RPMI-7666, blood lymphoblasts (untransformed); 72 h; read-out: IC50
Method: as §1, §2

L-1210 leukemia cells = experiment: XTT dye binding cytotoxicity assay, L-1210; format: cell-based, mouse; settings: L1210; L-1210, mouse leukemia; 72 h; read-out: IC50
Method: as §1, §2

[16] = test system: BT-549 breast carcinoma cells; experiment: XTT dye binding cytotoxicity assay, BT-549; format: cell-based; settings: Homo sapiens; BT-549, breast carcinoma; 72 h; read-out: IC50
Method: as §1, §2

tubulin = experiment: Tubulin polymerization-depolymerization (microtubule assembly-disassembly) assay; format: biochemical, calf; settings: CaCl2, 10^-6 M drug, 37° C., in words
tumor cell lines = experiment: Cytotoxicity, summary over tumor cell lines (XTT); format: cell-based, human and murine
Method: Antiproliferative activities of the onium salts were determined using the XTT dye binding assay. Cells were harvested with trypsin/EDTA (Irvine Scientific), washed, resuspended in the appropriate medium, and counted in a hemocytometer using Trypan Blue to determine viability. […] After 72 hours, XTT binding dye was added and incubation was continued for 4 hours. The inhibition of cell proliferation was quantified using a Molecular Devices Microplate Reader. […] The concentration of drug which inhibited growth of cells by 50% was calculated from duplicated determinations.

[17] = Toxicity and survival in vivo (tumor bearing nude mice); settings: for Toxicity: Table II, in vivo; for % survival: at end of experiments
[18] = test system: Molt-4 T-cell leukemia cells; experiment: XTT dye binding cytotoxicity assay, Molt-4; format: cell-based; settings: Homo sapiens; Molt-4, T-cell leukemia; 72 h; read-out: IC50
Method: as §1, §2

NHDF dermal fibroblast = experiment: XTT dye binding cytotoxicity assay, NHDF; format: cell-based; settings: Homo sapiens, dermal fibroblast (untransformed), 72 h, read-out: IC50
Method: as §1, §2

[19] = Stability in water, assay medium and storage solution; format: physicochemical
Description: used and differing ultraviolet absorption maxima between the prodrug and the drug, the stability was easily assayed using UV detection. In all the ensuing studies, the only degradation products detected were the taxoids and the pyridinone that results from the hydrolysis of the onium salts. In water, these compounds show surprising stability for up to weeks depending upon the storage conditions. […] The fraction of ethyl acetated extractable material was between 18 and 23% for all onium salts and 95% for the present compounds.
FIG. 2 illustrates the results of GTP induced polymerization and calcium chloride induced depolymerization of tubulin in the presence of taxol and the 2'- and 7-MPA substituted derivatives.

[20] = test system: CHO Chinese hamster ovary cells; experiment: XTT dye binding cytotoxicity assay, CHO; format: cell-based; settings: Cricetulus griseus; CHO, Chinese hamster ovary (untransformed); 72 h; read-out: IC50
Method: as §1, §2

[21] = Comparative toxicities (lethality) in mice
[22] = test system: A549 lung adenocarcinoma tumor xenograft; experiment: Human lung adenocarcinoma A549 xenograft in nude mice; settings: 1.0 mM, 400 μL i.p. days 1, 3, 5, 7, 9, 11
Method: as §3
The tumor model was generated from A549 cell line, an ATTC that was maintained under standard cell proliferation conditions (37° C., 5% carbon dioxide in sterile air). Each cohort was comprised of six randomly chosen female athymic nude mice, for a total population size of twenty four mice. Hemocytometer counted cells, suspended in Hanks mediun (Gibco, Grand Island N.Y.) were implated S.C. (10^6 cells in 0.4 mL per mouse). Solid tumor growth was measured on each third day. Equimolar amounts of the test compounds (1.0 mM, 400 μL) were injected i.p. on days 1, 3, 5, 7, 9, and 11 using the following media:
(Δ): Control, saline in 5× distilled water (5 DW)
(.smallcircle.): Taxol (18.0 mg/kg of animal weight or approximately 1,260 mg/m^2) suspended in Cremaphor/D5W […]

in vitro = settings: human, plasma

Row | Compound | pIC50 [2] | pIC50 [4] | pIC50 [5] | pIC50 [6] | pIC50 [7] | pIC50 [8] | pIC50 [9] | pIC50 [10] | pIC50 [11] | half-life [12] [min] | recovery [12] [%] | pIC50 (SK-Mel-28 melanoma cells) | pIC50 (U-2511 CNS cancer cells) | pIC50 [13] | pIC50 [14] | pIC50 [15] | pIC50 (L-1210 leukemia cells) | pIC50 [16] | pIC50 (NHDF dermal fibroblast) | pIC50 [20] | other results
1 | CC(=O)O[C@H]1C(=O)[C@]2(C)[C@@H](Oc3cccc[n+]3C)C[C@H]3OC[C@@]3(OC(C)=O)[C@H]2[C@H](OC(=O)c2ccccc2)[C@]2(O)C[C@H](OC(=O)[C@H](O)[C@@H](NC(=O)c3ccccc3)c3ccccc3)C(C)=C1C2(C)C [Compound 3] | 7.46 | 7.89 | 7.71 | 6.34 | 9.21 | 8.23 | 7.07 | 7.45 | 7.09 | 180 | 20 | 6.15 | 6.77 | 8.06 | 7.37 | 6.91 | 6.75 | 6.85 | 7.07 | 6.21 | antitumor activity, PC-3 ([1]; 1.0 mM, 400 μL i.p., established tumors): essentially no antitumor activity; mice surviving treatment, PC-3 ([1]; in vivo): all of the mice given either the 2'- or 7-isomers survived; pIC50 [3]: 7.15; in vivo antitumor efficacy in words (human tumor xenografts): completely failed to inhibit the growth of these tumors in nude mice; inhibition of calcium chloride induced depolymerization of microtubules (tubulin): as effective as taxol in inhibiting calcium induced microtubule disassembly; inhibition of calcium chloride induced depolymerization of microtubules (tubulin; listed as 7-MPA salt): essentially complete inhibition of depolymerization; inhibition of calcium chloride induced depolymerization of microtubules (tubulin; listed as taxol-7-MPA): suppressed by taxol and taxol-7-MPA; cytotoxicity in words (tumor cell lines): cytotoxicities comparable to taxol on human tumor cell lines; Toxicity [17]: low; % survival [17]: 100%; pIC50 [18]: 8.00; stability under the assembly-disassembly conditions ([19]; HPLC analysis): completely stable
2 | CC(=O)O[C@@]12CO[C@@H]1C[C@H](O)[C@@]1(C)C(=O)[C@H](O)C3=C(C)[C@@H](OC(=O)[C@H](O)[C@@H](NC(=O)OC(C)(C)C)c4ccccc4)C[C@@](O)([C@@H](OC(=O)c4ccccc4)[C@H]21)C3(C)C [Compound 5, N-debenzoyl-N-tert-butoxycarbonyl-10-deacetyl Taxol, reference compound] | 10.96 | 9.92 | 9.19 | 7.38 | 10.77 | 10.46 | 9.96 | 9.08 | 7.48 |  |  | 6.21 | 7.68 | 8.81 | 9.10 | 7.15 | 9.23 |  | 7.19 | 7.10 | 50% lethality and toxicities, in words ([21]; conventional formulation, relative to taxol): 50% lethality and toxicities at generally lower dosages as compared to taxol
3 | CC(=O)O[C@@]12CO[C@@H]1C[C@H](O)[C@@]1(C)C(=O)[C@H](O)C3=C(C)[C@@H](OC(=O)[C@H](Oc4cccc[n+]4C)[C@@H](NC(=O)OC(C)(C)C)c4ccccc4)C[C@@](O)([C@@H](OC(=O)c4ccccc4)[C@H]21)C3(C)C [Compound 6] | 9.23 | 7.70 | 8.13 | 9.25 |  | 9.05 | 7.09 | 8.51 | 7.25 | 0.9 | 18 | 7.17 | 9.21 | 8.39 | 9.14 | 6.22 | 10.72 | 10.19 | 8.80 | 6.53 | Toxicity ([21]; mouse, in vivo): minimal toxicity; lethality ([21]; mouse, in vivo): no lethality; storage stability ([19]; 1-2% Tween #80 or Tween #20 with or without ethyl alcohol): stable and may stored without significant loss
4 | CC(=O)O[C@H]1C(=O)[C@@]2(C)[C@H]([C@H](OC(=O)c3ccccc3)[C@]3(O)C[C@H](OC(=O)[C@H](OC(=O)CS(=O)(=O)C(=O)O)[C@@H](NC(=O)c4ccccc4)c4ccccc4)C(C)=C1C3(C)C)[C@]1(OC(C)=O)CO[C@@H]1C[C@@H]2O [Compound 7] |  |  |  |  |  |  |  |  |  | 100 | 34 |  |  |  |  |  |  |  |  |  | tumor growth inhibition, A549 [22]: no significant growth inhibition; in vivo antitumor efficacy in words (human tumor xenografts): completely fails to exhibit any antitumor effects in vivo; cytotoxicity in words (tumor cell lines): high cytotoxicity profile; Toxicity [17]: low; % survival [17]: 75%
5 | CC(=O)O[C@H]1C(=O)[C@@]2(C)[C@H]([C@H](OC(=O)c3ccsc3)[C@]3(O)C[C@H](OC(=O)[C@H](Oc4cccc[n+]4C)[C@@H](NC(=O)c4ccccc4)c4ccccc4)C(C)=C1C3(C)C)[C@]1(OC(C)=O)CO[C@@H]1C[C@@H]2O [Compound 4] | 9.46 | 8.73 | 8.38 | 7.94 | 9.27 | 9.92 | 9.07 | 9.00 | 6.66 |  |  | 6.96 | 7.50 | 8.12 | 8.63 | 6.39 | 8.92 | 9.96 | 6.18 | 6.09 | half-life (in vitro): 14 min; recovery (in vitro): 23%; pIC50 [3]: 8.94; inhibition of calcium chloride induced depolymerization of microtubules (tubulin): behaved in this assay similar to the C-2'-MPA isomer of taxol (2); Toxicity [17]: low; % survival [17]: 100%; pIC50 [18]: 10.18
6 | CC(=O)O[C@H]1C(=O)[C@@]2(C)[C@H]([C@H](OC(=O)c3ccsc3)[C@]3(O)C[C@H](OC(=O)[C@H](O)[C@@H](NC(=O)c4ccccc4)c4ccccc4)C(C)=C1C3(C)C)[C@]1(OC(C)=O)CO[C@@H]1C[C@@H]2O [C-2-substituted thiophene derivative] |  |  |  |  |  |  |  |  |  |  |  |  |  |  |  |  |  |  |  |  | inhibition of calcium chloride induced depolymerization of microtubules (tubulin): inhibited depolymerization similar to taxol
